Test results published in patent US20250281480A1, “PHARMACEUTICAL DRY POWDER INHALATION FORMULATION” (Bayer Aktiengesellschaft, priority 2021, published 2025).

Columns and labels:
[1] = test system: unilateral ventilated minipig; assay: Unilateral ventilated minipig model as a proxy of VQ-mismatch; type: in vivo; conditions: inhaled application
[2] = test system: plasma proteins; assay: Protein binding via Transil assay, dog plasma; type: in vitro ADME
Excerpt: The distribution of a test substance between Transil® (phosphatidylcholine lipid bilayers immobilized on silica beads) and plasma is a characteristic feature of any pharmaceutical compound and is dependent on its extent of binding to plasma proteins. By comparing the distribution between Transil® and buffer with the distribution between Transil® and plasma of any species of interest, the unbound fraction in the plasma of the respective animal species can be calculated in vitro. The respective plasma and buffer concentrations were determined via a radioactivity analysis. A detailed description of the method and its validation was published by Schuhmacher et al. (2).

[3] = test system: acetylcholine [ACh] rat model; assay: Acetylcholine [ACh] rat model, bronchodilation; conditions: in vivo
[4] = Deposited lung dose with absorbing filters and prediction of human dose (PAH minipig model); type: in vivo
Procedure: The anesthetized thromboxane A2 challenged PAH-minipig model (see experimental part E-1) is considered to be the most relevant and sensitive model for the prediction of the human minimal effective and effective doses (MED, ED). To determine effective LDs, experiments were repeated with the difference that absorbing filters were attached at the end of the tubes to determine the deposited lung dose. […] Assuming a minimal effective ND of 3 μg/kg (5% reduction in PAP) the minimal effective deposited LD is considered as 0.15 μg/kg (see FIG. 1).
The nominal doses of 3, 10, 30 and 100 μg/kg of the minipig model were multiplied by the filter deposition factor of 5% resulting in 0.15, 0.5, 1.5 and 5 μg/kg lung deposited doses in the minipig. These values were multiplied by 60 kg to achieve the lung dose in humans. Thus, the FPD reflecting the PAP reduction for a 60 kg human are calculated to be 9, 30, 90 and 300 μg.
Thus, via a direct up-scaling from minipig, the predictive MED (5% PAP reduction) for a human based on a 60 kg body weight is calculated to be 9 μg LDD, not considering protein binding within the respiratory tract. As a surrogate for unbound concentrations, which are the likely active concentrations in the lung, we considered respective differences in fractions unbound in plasma of minipig and human. This consideration results in a minimum effective lung dose (LD) for a 60 kg participant of 41 μg LDD for the assumed 5% reduction on PAP. Consequently, the predictive minimal human effective dose is in the range from 9 μg LDD to 41 μg LDD based on a 60 kg body weight (see FIG. 2).
In order to generate a human dose estimate, experiments in the PAH minipig model for comparative example 11 were repeated with the difference that absorbing filters were attached at the end of the tubes to […] determine the deposited lung dose. […] The arithmetic mean of the aerosol fraction deposited on the filters is 5% based on all results of the filter experiments, resulting in relative lung deposited doses of about 0.15 μg/kg (3 μg/kg nominal dose), 0.5 μg/kg (10 μg/kg nominal dose), 1.5 μg/kg (30 μg/kg nominal dose) and 5 μg/kg (100 μg/kg nominal dose). Assuming a minimal effective nominal dose of 3 μg/kg for a 5% reduction in PAP and a mean nebulization efficiency of 5%, the minimal effective deposited lung dose is considered as 0.15 μg/kg based on the PAH minipig model. Therefore, for a human patient of 60 kg body weight a minimal effective lung deposited dose of 9-41 μg, depending on whether or not an effect of different protein binding (see table 37) is postulated. Considering 100 μg/kg as effective dose in the minipig model, 300-1370 μg lung deposited dose is postulated as effective dose, again depending on the consideration of different interspecies protein binding.

[5] = test system: PAH-minipig; assay: PAH-minipig model, inhaled application on top of PAH standard-of-care; type: in vivo; conditions: bosentan, sildenafil, Ilomedin, riociguat
[6] = Micronization of monohydrate II and monohydrate I (spiral jet mill): solid form after micronization; type: physicochemical; conditions: example 8e: 100 mm spiral jet mill
Excerpt: Generally no amorphization even partial nor form conversion should happen during the necessary micronization step.
The corresponding batches (examples 8a-8d) were micronized using a 50 mm spiral jet mill and pressurized nitrogen with the following parameters (see table 16b).
The corresponding batches were micronized using a 100 mm spiral jet mill and pressurized nitrogen with the following parameters (see table 16c).

[7] = Phase I, single inhaled, inhaled + charcoal, oral and intravenous doses in healthy male subjects: plasma concentrations, lung deposition; type: in vivo, human
Procedure: Healthy white male subjects, aged 18 to 45 years with a body mass index (BMI) above/equal 18.5 and below/equal 29.9 kg/m^2 were treated in a clinical phase I study with a single inhaled dose of 1000 μg (nominal dose), a single inhaled dose of 1000 μg (nominal dose)+charcoal block, a single oral dose of 1000 μg and a single infusion over 2 h of 100 μg of example 4. As the bioavailability of an intravenous application is generally 100% per definition and therefore higher than in case of an oral or […], the intravenous dose was carefully selected to be lower than the oral and inhaled dose to avoid higher plasma concentration resulting from a high IV dose and potential side effect, e.g. reduction in blood pressure or syncope. Therefore, 100 μg was selected for the IV dose in this investigation. Seven days washout period between treatments was applied. The subjects swallowed a solution for oral administration (20 ml comprising 1000 μg see under C-2, table 49a). The subjects received a solution as a single infusion over 2 hours (2 ml comprising 100 μg see under C-2 table 49a). The subjects inhaled the drug powder from capsules (see under C-1, tables 17 and 20) inserted into a handheld inhalation device by one deep inhalative breath. After inhalation of the dry powder formulation of this drug, some parts of the nominal dose remain in the capsule and the device, the dose which reaches the body at the mouthpiece is called the emitted dose. The emitted dose can be calculated/determined as followed: nominal dose−(remains in the capsule+remains in the device). After inhalation of the dry powder, one part of the emitted dose enters the gastrointestinal tract (GT and is called the oral part of the emitted dose, the other part of the emitted dose which reaches the lung through the respiratory airways is called the lung dose and represents the lung deposited dose. As the lung is the target organ of the effect, the lung deposited dose must be quantified. Lung deposition can be indirectly estimated, by determining the part of the nominal dose which reaches the GIT and the remains in the capsule and the device. To investigate and determine lung deposition, the following investigations were done (see also FIG. 59): • 1—Inhaled application of a single dose of 1000 μg of the dry powder. • 2—Inhaled application of a single dose of 1000 μg of the dry powder in combination with oral administration of charcoal block. The charcoal block capped the oral absorption of GIT part of the dose, as example 4 completely adsorbed to charcoal block. This implies that the concentrations of example 4 measured reach the systemic circulation via the lung. • 3—Administration of a single oral dose of 1000 μg example 4 to determine the oral absorption. • 4—Administration of a 2 h infusion of example 4 to investigate the elimination.

Row | SMILES | effect on PAP and oxygenation [1] | fraction unbound, lower than comparative example 1 [2] | effect on ventilation [3] | Relative lung deposited dose in minipig ([4]; 3 μg/kg nominal dose) | Relative lung deposited dose in minipig ([4]; 10 μg/kg nominal dose) | Relative lung deposited dose in minipig ([4]; 30 μg/kg nominal dose) | Relative lung deposited dose in minipig ([4]; 100 μg/kg nominal dose) | effect on PAP on top of PAH standard-of-care [5] | stability under micronization conditions [6] | absolute bioavailability ([7]; dry powder inhaled with charcoal) | absolute bioavailability ([7]; dry powder inhaled without charcoal) | elimination half-life ([7]; inhaled 1000 μg with charcoal) | elimination half-life ([7]; inhaled 1000 μg without charcoal) | elimination half-life ([7]; intravenous, 100 μg infusion over 2 h) | elimination half-life ([7]; oral, 1000 μg)
1 | O=C(O)c1ccc(CCN(CCc2ccccc2OCc2ccc(-c3ccc(C(F)(F)F)cc3)cc2Cl)[C@H]2CCCc3nc(C(=O)O)ccc32)cc1 [Comparative example 11, (5S)-5-{[2-(4-carboxyphenyl)ethyl][2-(2-{[3-chloro-4′-(trifluoromethyl)[biphenyl]-4-yl]methoxy}phenyl)ethyl]amino}-5,6,7,8-tetrahydroquinoline-2-carboxylic Acid] | lowered PAP without negative effects on oxygenation | 10 times lower | bronchodilatory effect | 0.15 µg/kg | 0.50 µg/kg | 1.5 µg/kg | 5.0 µg/kg | selectively decreased elevated PAP | – | – | – | – | – | – | –
2 | O=C(O)c1ccc(CCN(CCc2ccccc2OCc2ccc(-c3ccc(C(F)(F)F)cc3)cc2Cl)[C@H]2CCCc3nc(C(=O)O)ccc32)cc1 [Example 4, (5S)—{[2-(4-Carboxyphenyl)ethyl][2-(2-{[3-chloro-4′-(trifluoromethyl)biphenyl-4-yl]methoxy}phenyl)-ethyl]amino}-5,6,7,8-tetrahydroquinoline-2-carboxylic Acid as Monohydrate I] | – | – | – | – | – | – | – | – | stable | 16.3% | 18.8% | 16.1 h | 15.1 h | 0.26 h | 4.43 h
